The text below walks through data of the supplement of paper PMC11281043.

Molecules are shown by their SMILES.

Conditions in all cases: exposure: 6-8 hpf to 5 dpf, scored at 6 dpf
Assay [1] relates to Danio rerio embryo/larva. The assay can be described thus: max % larvae with pigmentation defects across tested concentrations; higher = more toxic.
The test system of assay [2] is Danio rerio embryo/larva. As to the kind of experiment: max % larvae with abnormal position across tested concentrations; higher = more toxic; extreme values may be limits of the assay.
Assay [3] relates to Danio rerio embryo/larva. As to the kind of experiment: max % larvae with craniofacial defects across tested concentrations; higher = more toxic; extreme values may be limits of the assay.
Assay [4] deals with Danio rerio embryo/larva. The assay can be described thus: max % larvae with tail defects across tested concentrations; higher = more toxic; extreme values may be limits of the assay.
Assay [5] deals with Danio rerio embryo/larva. The assay can be described thus: max % larvae with edema across tested concentrations; higher = more toxic; extreme values may be limits of the assay.
The test system of assay [6] is Danio rerio embryo/larva. As to the kind of experiment: max % larvae with spinal defects across tested concentrations; higher = more toxic; extreme values may be limits of the assay.
The subject of assay [7] is Danio rerio embryo/larva. As to the kind of experiment: max % larvae with uninflated swim bladder across tested concentrations; higher = more toxic; extreme values may be limits of the assay.
Assay [8] has as its system Danio rerio embryo/larva. As to the kind of experiment: max % larvae generally abnormal across tested concentrations; higher = more toxic; extreme values may be limits of the assay.
Assay [9] relates to Danio rerio embryo/larva. As to the kind of experiment: max % larvae with blood pooling across tested concentrations; higher = more toxic; extreme values may be limits of the assay.

As to `C=C(C)C(=O)OCC(F)(F)C(F)(F)C(F)(F)C(F)(F)C(F)(F)C(F)(F)C(F)(F)F` [(Perfluoroheptyl)methyl methacrylate] (max tested concentration (log10 uM): 1.60206), the max % larvae in [1], in [2], in [3], in [4], in assay [5] and in [6] was 0% each time. The max % larvae in [7] and in assay [9] was 0% throughout. Further, the “max % larvae generally abnormal across tested concentrations” value in [8] is 0%.

Regarding `FC(F)(F)C(F)(F)C(F)(F)C(F)(F)CCI` [1H,1H,2H,2H-Perfluorohexyl iodide] (max tested concentration (log10 uM): 2), the max % larvae turned out to be 0% in assay [1]; 0% in [2]; 0% in assay [3]; 0% in [4]; 8.33% in assay [5]; 0% in [6]. In addition, the max % larvae in [7] and in [9] was 0% each time. Also, the “max % larvae generally abnormal across tested concentrations” value in [8] came to 8.33%.

As for `O=C(O)C(F)(F)C(F)(F)C(F)(F)C(=O)O` [Perfluoropentanedioic acid] (max tested concentration (log10 uM): 2), the max % larvae in [1], in assay [2], in assay [3], in [4], in assay [5] and in assay [6] was 0% throughout. Further, the max % larvae in assay [7] and in assay [9] was 0% each time. For the same molecule, the “max % larvae generally abnormal across tested concentrations” value in assay [8] stood at 0%.

In the case of `FC(F)(F)C(F)(F)C(F)(F)CI` [Heptafluorobutyl iodide] (max tested concentration (log10 uM): 2), the max % larvae in [1], in assay [2], in [3], in [4], in assay [5] and in [6] was 0% in each case. The max % larvae in [7] and in [9] was 0% in each case. Moreover, the “max % larvae generally abnormal across tested concentrations” value in [8] worked out at 0%.

Take `O=S(=O)(O)C(F)(F)C(F)(F)OC(F)(F)C(F)(F)F` [Perfluoro-2-ethoxyethanesulfonic acid] (max tested concentration (log10 uM): 2): the max % larvae in assay [1] came to 0%; in assay [2] it was 0%; in assay [3], 0%; in assay [4], 0%; in assay [5], 8.33%; in assay [6] it was 0%. The figures for the max % larvae in assay [7] and in assay [9] were 16.7% and 0%, respectively. In addition, the “max % larvae generally abnormal across tested concentrations” value in assay [8] was 8.33%.

On to `NCC(F)(F)C(F)(F)C(F)(F)C(F)(F)C(F)(F)C(F)(F)C(F)(F)C(F)(F)F` [1H,1H-Perfluorononylamine] (max tested concentration (log10 uM): 1.60206), for which the max % larvae in assay [1] was determined as 0%; in assay [2], 25%; in assay [3], 50%; in [4], 0%; in assay [5] it was 50%; in assay [6], 0%. Besides, the max % larvae in assay [7] and in assay [9] was 50% each time. Besides, the “max % larvae generally abnormal across tested concentrations” value in assay [8] came to 75%.

In the case of `FC(F)(F)C(F)(F)C(F)(F)C(F)(F)C(F)(F)C(F)(F)C(F)(F)C(F)(F)CCS` [2-(Perfluorooctyl)ethanthiol] (max tested concentration (log10 uM): 1.60206), the max % larvae in assay [1] is 0%; in assay [2], 0%; in assay [3], 0%; in [4], 0%; in assay [5], 8.33%; in assay [6], 0%. For the same molecule, the max % larvae in assay [7] is 8.33%; in assay [9], 0%. Moreover, the “max % larvae generally abnormal across tested concentrations” value in assay [8] worked out at 8.33%.

As to `O=S(=O)(O)C(F)(F)C(F)(F)C(F)(F)C(F)(F)F` [Potassium perfluorobutanesulfonate] (max tested concentration (log10 uM): 2), the max % larvae in assay [1], in assay [2], in assay [3], in assay [4], in [5] and in assay [6] was 0% throughout. The figures for the max % larvae in assay [7] and in assay [9] were 8.33% and 0%, respectively. Moreover, in [8], the “max % larvae generally abnormal across tested concentrations” value stood at 4.17%.

As to `O=C(O)C=CC(F)(C(F)(F)F)C(F)(F)F` [3-(Perfluoroisopropyl)-2-propenoic acid] (max tested concentration (log10 uM): 2), the max % larvae in [1] stood at 0%; in assay [2] it was 8.33%; in assay [3] it was 16.7%; in assay [4], 8.33%; in [5], 16.7%; in assay [6], 8.33%. The max % larvae in assay [7] and in assay [9] was 16.7% in each case. Further, in [8], the “max % larvae generally abnormal across tested concentrations” value was found to be 16.7%.

As for `FC(F)(F)C(F)(C(F)(F)F)C(F)(F)C(F)(F)CC1CO1` (centres undefined) [3-(Perfluoro-3-methylbutyl)-1,2-propenoxide] (max tested concentration (log10 uM): 1.60206), the max % larvae in [1], in [2], in [3], in assay [4], in assay [5] and in [6] was 0% throughout. Besides, the max % larvae in assay [7] and in assay [9] was 0% throughout. In assay [8], the “max % larvae generally abnormal across tested concentrations” value was found to be 0%.

On to `O=C(O)C(F)(F)C(F)(F)F` [Perfluoropropanoic acid] (max tested concentration (log10 uM): 2), for which the max % larvae in assay [1], in assay [2], in assay [3], in assay [4], in [5] and in [6] was 0% throughout. Also, the max % larvae in [7] and in [9] was 0% each time. Moreover, the “max % larvae generally abnormal across tested concentrations” value in assay [8] was determined as 0%.
